Assays:
[1] = tested on: Enterococcus faecalis ATCC 29212; conditions: E.faecalis, cited from earlier work
E. faecium [2] = assay: Qualitative susceptibility by glucose consumption, bacteria from plated cultures (Example 2, Table 6); type: cell-based
Protocol: (§1) If the susceptibility score is a qualitative susceptibility score classifying the microorganism as "susceptible", or "non-susceptible" to an antibiotic agent the answer could be given in as little as 1 hour. Bacteria from plated cultures were suspended in cation adjusted Mueller-Hinton broth (SVA, Uppsala, Sweden) supplemented with glucose. Consequently, the concentration of microorgansims was typically two orders of magnitude higher as compared to Example 1. […] The tested microorganisms was one strain of E. faecium, two strains of E.coli and one S. aureus. Table 6. "--" denotes no measurement

E. coli ATCC 25922 [3] = assay: as above; type: cell-based
Protocol: as §1

E. coli 17 = assay: as above; type: cell-based
Protocol: as §1

S. aureus = assay: as above; type: cell-based
Protocol: If the susceptibility score is a qualitative susceptibility score classifying the microorganism as "susceptible", or "non-susceptible" to an antibiotic agent the answer could be given in as little as 1 hour.
Bacteria from plated cultures were suspended in cation adjusted Mueller-Hinton broth (SVA, Uppsala, Sweden) supplemented with glucose. Consequently, the concentration of microorgansims was typically two orders of magnitude higher as compared to Example 1. […] The tested microorganisms was one strain of E. faecium, two strains of E.coli and one S. aureus. Table 6. "--" denotes no measurement

E. coli ATCC 25922 [4] = assay: Qualitative susceptibility by glucose consumption, directly from positive BC-bottles (Example 2, Table 7); type: cell-based
[5] = tested on: Escherichia coli ATCC 25922; conditions: E.coli, cited from earlier work
E. faecium [6] = assay: Qualitative susceptibility by glucose consumption, directly from positive BC-bottles (Example 2, Table 7); type: cell-based
Protocol: With slightly lower microbe concentrations e.g. directly from positive BC-bottles (^~10^9 CFU/ml) the results are shown at least within 2 hours, where E. coli ATCC 25922 is classified as susceptible and E. faecium is non-susceptible. Table 7. "--" denotes no measurement

[7] = tested on: Escherichia coli (ATCC 25922); assay: Antibiotic susceptibility by glucose consumption in culture medium, blood culture bottle inoculum (Example 1); type: cell-based; conditions: for Glucose concentration t=0: 0 minutes; for Glucose concentration t=60: 60 minutes; for Glucose concentration t=120: 120 minutes; for Glucose concentration t=180: 180 minutes; for dC/dT: rate of change in glucose concentration; for Glucose concentration t=240: 240 minutes;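 for dC/dT: rate calculated between the 60 and 180 min readings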
Method in brief: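 Bacteria grown in blood culture bottles until positive, diluted 1:100 into cation-adjusted Mueller-Hinton broth with glucose at 1.0 mg/mL plus antibiotic (µg/mL). Glucose read by glucometer at 0–240 min.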

[8] = range obtained by EUCAST from ISO 20776-1: 2006
[9] = reference MIC value, EUCAST QC tables Version 7.0, 2017

With Gentamicin as the substance, how does the “MIC EUCAST, range in parentheses” value [1, 8] read?
The value was 4 to 16 µg/mL.

And the “MIC EUCAST” value [1, 9]?
The value was 8 µg/mL.

What about the Qualitative susceptibility score (E. faecium [2]; E. faecium, 256 µg/mL, plated cultures, Table 6) of the same substance?
Its Qualitative susceptibility score is “non-susceptible”.

What about the “Glucose concentration t=0” value (E. faecium [2]; [Ab] 256 µg/mL, t=0) of the same substance?
The value was 79.

What about the “Glucose concentration t=15” value (E. faecium [2]; [Ab] 256 µg/mL, t=15) of the same substance?
The value was 47.

And the Qualitative susceptibility score (E. coli ATCC 25922 [3]; E. coli ATCC 25922, 256 µg/mL, plated cultures, Table 6)?
The Qualitative susceptibility score was “susceptible”.

What about the “Glucose concentration t=15” value (E. coli ATCC 25922 [3]; [Ab] 256 µg/mL, t=15) of the same substance?
The value was 156.

What about the “Glucose concentration t=30” value (E. coli ATCC 25922 [3]; [Ab] 256 µg/mL, t=30) of the same substance?
The value was 155.

What about the “Glucose concentration t=45” value (E. coli ATCC 25922 [3]; [Ab] 256 µg/mL, t=45) of the same substance?
The value was 136.

And the Qualitative susceptibility score (E. coli 17; E. coli 17, 256 µg/mL, plated cultures, Table 6)?
The Qualitative susceptibility score was “susceptible”.

What about the “Glucose concentration t=15” value (E. coli 17; [Ab] 256 µg/mL, t=15) of the same substance?
The value was 131.

What about the “Glucose concentration t=30” value (E. coli 17; [Ab] 256 µg/mL, t=30) of the same substance?
The value was 126.

What about the “Glucose concentration t=45” value (E. coli 17; [Ab] 256 µg/mL, t=45) of the same substance?
The value was 123.

What about the Qualitative susceptibility score (S. aureus; S. aureus, 256 µg/mL, plated cultures, Table 6) of the same substance?
The Qualitative susceptibility score was “susceptible”.

What about the “Glucose concentration t=15” value (S. aureus; [Ab] 256 µg/mL, t=15) of the same substance?
The value was 137.

What about the “Glucose concentration t=30” value (S. aureus; [Ab] 256 µg/mL, t=30) of the same substance?
The value was 139.

What about the “Glucose concentration t=45” value (S. aureus; [Ab] 256 µg/mL, t=45) of the same substance?
Its value is 131.

And the Qualitative susceptibility score (E. coli ATCC 25922 [4]; E. coli ATCC 25922, 256 µg/mL, from positive BC-bottles, within 2 hours, Table 7)?
Its Qualitative susceptibility score is “susceptible”.

And the “Glucose concentration t=0” value (E. coli ATCC 25922 [4]; [Ab] 256 µg/mL, t=0)?
The value was 145.

What about the “Glucose concentration t=45” value (E. coli ATCC 25922 [4]; [Ab] 256 µg/mL, t=45) of the same substance?
The value was 155.

And the “Glucose concentration t=60” value (E. coli ATCC 25922 [4]; [Ab] 256 µg/mL, t=60)?
The value was 151.

And the “Glucose concentration t=90” value (E. coli ATCC 25922 [4]; [Ab] 256 µg/mL, t=90)?
The value was 140.

What about the “Glucose concentration t=105” value (E. coli ATCC 25922 [4]; [Ab] 256 µg/mL, t=105) of the same substance?
The value was 135.

What about the “MIC EUCAST, range in parentheses” value [5, 8] of the same substance?
Its value is 0.25 to 1 µg/mL.

What about the “MIC EUCAST” value [5, 9] of the same substance?
Its value is 0.5 µg/mL.

And the Qualitative susceptibility score (E. faecium [6]; E. faecium, 256 µg/mL, from positive BC-bottles, within 2 hours, Table 7)?
The Qualitative susceptibility score was “non-susceptible”.

What about the “Glucose concentration t=0” value (E. faecium [6]; [Ab] 256 µg/mL, t=0) of the same substance?
The value was 144.

What about the “Glucose concentration t=45” value (E. faecium [6]; [Ab] 256 µg/mL, t=45) of the same substance?
The value was 105.

And the “Glucose concentration t=60” value (E. faecium [6]; [Ab] 256 µg/mL, t=60)?
Its value is 77.

What about the “Glucose concentration t=75” value (E. faecium [6]; [Ab] 256 µg/mL, t=75) of the same substance?
The value was 47.

What about the “MIC Measured” value ([7]; E.coli, 80% threshold of rate of change vs reference, between 60 and 180 minutes, obtained in 4 hours) of the same substance?
The value was 1 µg/mL.

What about the “F=the rate of change in glucose concentration in relation to the reference” value (from here on “F=the rate of change”) ([7]; [Ab] 0,5 µg/mL) of the same substance?
Its value is 121%.

And the “Glucose concentration t=0” value ([7]; [Ab] 0,5 µg/mL)?
The value was 144.

What about the “Glucose concentration t=60” value ([7]; [Ab] 0,5 µg/mL) of the same substance?
The value was 147.

What about the “Glucose concentration t=120” value ([7]; [Ab] 0,5 µg/mL) of the same substance?
The value was 147.

What about the “Glucose concentration t=180” value ([7]; [Ab] 0,5 µg/mL) of the same substance?
The value was 72.

What about the dC/dT ([7]; [Ab] 0,5 µg/mL) of the same substance?
Its dC/dT is 75.

What about the “F=the rate of change” value ([7]; [Ab] 0,25 µg/mL) of the same substance?
The value was 139%.

And the “Glucose concentration t=0” value ([7]; [Ab] 0,25 µg/mL)?
The value was 149.

And the “Glucose concentration t=60” value ([7]; [Ab] 0,25 µg/mL)?
Its value is 152.

What about the “Glucose concentration t=120” value ([7]; [Ab] 0,25 µg/mL) of the same substance?
Its value is 144.

And the “Glucose concentration t=180” value ([7]; [Ab] 0,25 µg/mL)?
The value was 58.

What about the dC/dT ([7]; [Ab] 0,25 µg/mL) of the same substance?
Its dC/dT is 86.

What about the “F=the rate of change” value ([7]; [Ab] 1 µg/mL) of the same substance?
Its value is 77%.

What about the “Glucose concentration t=0” value ([7]; [Ab] 1 µg/mL) of the same substance?
The value was 144.

And the “Glucose concentration t=60” value ([7]; [Ab] 1 µg/mL)?
Its value is 155.

And the “Glucose concentration t=120” value ([7]; [Ab] 1 µg/mL)?
Its value is 148.

And the “Glucose concentration t=180” value ([7]; [Ab] 1 µg/mL)?
Its value is 111.

What about the “Glucose concentration t=240” value ([7]; [Ab] 1 µg/mL) of the same substance?
The value was 53.

What about the dC/dT ([7]; [Ab] 1 µg/mL) of the same substance?
Its dC/dT is 48.

And the “F=the rate of change” value ([7]; [Ab] 2 µg/mL)?
Its value is 9%.

What about the “Glucose concentration t=60” value ([7]; [Ab] 2 µg/mL) of the same substance?
Its value is 161.

What about the “Glucose concentration t=120” value ([7]; [Ab] 2 µg/mL) of the same substance?
Its value is 151.

What about the “Glucose concentration t=180” value ([7]; [Ab] 2 µg/mL) of the same substance?
Its value is 143.

And the “Glucose concentration t=240” value ([7]; [Ab] 2 µg/mL)?
Its value is 140.

What about the dC/dT ([7]; [Ab] 2 µg/mL) of the same substance?
Its dC/dT is 6.

And the “F=the rate of change” value ([7]; [Ab] 4 µg/mL)?
The value was 7%.

What about the “Glucose concentration t=0” value ([7]; [Ab] 4 µg/mL) of the same substance?
The value was 147.

And the “Glucose concentration t=60” value ([7]; [Ab] 4 µg/mL)?
The value was 163.

And the “Glucose concentration t=120” value ([7]; [Ab] 4 µg/mL)?
The value was 157.

And the “Glucose concentration t=180” value ([7]; [Ab] 4 µg/mL)?
Its value is 148.

What about the “Glucose concentration t=240” value ([7]; [Ab] 4 µg/mL) of the same substance?
Its value is 148.

What about the dC/dT ([7]; [Ab] 4 µg/mL) of the same substance?
Its dC/dT is 5.

And the “F=the rate of change” value ([7]; [Ab] 8 µg/mL)?
The value was 7%.

And the “Glucose concentration t=0” value ([7]; [Ab] 8 µg/mL)?
Its value is 144.

What about the “Glucose concentration t=60” value ([7]; [Ab] 8 µg/mL) of the same substance?
The value was 156.

And the “Glucose concentration t=120” value ([7]; [Ab] 8 µg/mL)?
The value was 153.

And the “Glucose concentration t=180” value ([7]; [Ab] 8 µg/mL)?
The value was 150.

What about the “Glucose concentration t=240” value ([7]; [Ab] 8 µg/mL) of the same substance?
The value was 144.

What about the dC/dT ([7]; [Ab] 8 µg/mL) of the same substance?
Its dC/dT is 5.

And the “F=the rate of change” value ([7]; [Ab] 16 µg/mL)?
The value was 1%.

What about the “Glucose concentration t=0” value ([7]; [Ab] 16 µg/mL) of the same substance?
Its value is 143.

What about the “Glucose concentration t=60” value ([7]; [Ab] 16 µg/mL) of the same substance?
The value was 155.

What about the “Glucose concentration t=120” value ([7]; [Ab] 16 µg/mL) of the same substance?
Its value is 152.

And the “Glucose concentration t=180” value ([7]; [Ab] 16 µg/mL)?
The value was 149.

And the “Glucose concentration t=240” value ([7]; [Ab] 16 µg/mL)?
The value was 153.

And the dC/dT ([7]; [Ab] 16 µg/mL)?
The dC/dT was 1.

And the “F=the rate of change” value ([7]; [Ab] 32 µg/mL)?
Its value is 6%.

And the “Glucose concentration t=0” value ([7]; [Ab] 32 µg/mL)?
The value was 148.

And the “Glucose concentration t=60” value ([7]; [Ab] 32 µg/mL)?
Its value is 158.

What about the “Glucose concentration t=120” value ([7]; [Ab] 32 µg/mL) of the same substance?
Its value is 155.

What about the “Glucose concentration t=180” value ([7]; [Ab] 32 µg/mL) of the same substance?
Its value is 150.

What about the “Glucose concentration t=240” value ([7]; [Ab] 32 µg/mL) of the same substance?
Its value is 147.

What about the dC/dT ([7]; [Ab] 32 µg/mL) of the same substance?
Its dC/dT is 4.
